What was measured:
[1] = Turbidity of aqueous dispersions and solutions of vitamin E-containing components in demineralized water (Hach turbidimeter Model Ratio/XR); format: physicochemical; conditions: 150 +/- 5 ppm in demineralized water; for Turbidity (Initially doped water): initial; for Turbidity (6 wks after doping): six weeks at ambient temperature
Method: Preparation of aqueous dispersions and solutions of vitamin E-containing components.
(§1) Sample 1: Vitamin E oil (0.15 g) was added to 1000 g of demineralized water. The mixture was homogenized for approximately 60 minutes using a Gifford-Wood homogenizer, Model 1 L form Greerco Corporation. The sample was very cloudy. The turbidity of the sample was measured using a Hach turbidimeter Model Ratio/XR. The turbidity of the demineralized water was also measured prior to addition of the vitamin E. The sample was stored at ambient temperature for six weeks. […] The sample was shaken well and the turbidity measured.
(§2) Sample 2: Vitamin E acetate oil (0.25 g) from Sigma-Aldrich was added to 1681 g of demineralized water. […] The turbidity of the dispersion was measured and then again after storage for six weeks at ambient temperature.
(§3) Sample 3: Vitamin E succinate powder (0.27 g) from Sigma-Aldrich was added to 1792 g of demineralized water. The mixture was homogenized for approximately 60 minutes. […] The turbidity of the dispersion was measured and then again after storage for six weeks at ambient temperature.
(§4) This solution was stirred at ambient temperature using a magnetic stirrer for several minutes. […] The turbidity of the solution was measured and then measured again after storage at ambient temperature for six weeks.
(§5) Sample 6: To 1790 g of demineralized water was added 0.27 g of a mixture consisting of d,l-α-tocopheryl acetate, modified food starch, and silica. This product is commercially available from Roche Vitamins, Inc., under the name “Dry Vitamin E 15% CC”. The aqueous mixture was agitated for about thirty minutes using a magnetic stirrer. […] The turbidity of the solution was measured and then re-measured after storage for six weeks at ambient temperature.
(§6) Sample 7: To 1802 g of demineralized water was added 0.27 g of a mixture consisting of d-α-tocopheryl acetate, Polysorbate 60, and ethyl alcohol. This product is commercially available from ADM under the name “E 230 Clear®”. The mixture was agitated for about ten minutes using a magnetic stirrer. […] The turbidity of the solution was measured and then re-measured after storage for six weeks at ambient temperature.

[2] = Visual appearance / dissolution of vitamin E-containing components in demineralized water, on preparation and during storage; format: physicochemical; conditions: about 150 ppm in demineralized water; for Appearance / dissolution on preparation: after homogenizing or stirring; for Appearance during / after storage: six weeks at ambient temperature
Method: as §1, §2, §3, §4, §5, §6

SMILES: Cc1c(C)c2c(c(C)c1O)CC[C@@](C)(CCC[C@H](C)CCC[C@H](C)CCCC(C)C)O2 [Sample 1, d-α-Tocopherol]
- Turbidity (Initially doped water) [1]: 55 NTU
- Turbidity (6 wks after doping) [1]: 68 NTU
- Appearance / dissolution on preparation [2]: very cloudy
- Appearance during / after storage [2]: an immiscible layer of oil formed on top of the water

SMILES: CC(=O)Oc1c(C)c(C)c2c(c1C)CC[C@@](C)(CCC[C@H](C)CCC[C@H](C)CCCC(C)C)O2 [Sample 2, d-α-Tocopherol acetate]
- Turbidity (Initially doped water) [1]: 52 NTU
- Turbidity (6 wks after doping) [1]: 61 NTU
- Appearance / dissolution on preparation [2]: some immiscible oil droplets remained on the surface of the water
- Appearance during / after storage [2]: Immiscible oil droplets were still on the surface of the water

SMILES: Cc1c(C)c2c(c(C)c1OC(=O)CCC(=O)O)CCC(C)(CCCC(C)CCCC(C)CCCC(C)C)O2 (stereo not drawn) [Sample 3, d,l-α-Tocopherol succinate]
- Turbidity (Initially doped water) [1]: 8 NTU
- Turbidity (6 wks after doping) [1]: 22 NTU
- Appearance / dissolution on preparation [2]: A small amount of powder continued to float on the surface of the water
- Appearance during / after storage [2]: A small amount of powder continued to reside on the surface of the water
